Assay results taken from patent US20080194585A1, “Fungicidal Pyrazine Derivatives” (priority 2005, published 2008).
Marks after values point to notes of the source that are not given here.

Experiments:
Septoria nodorum = experiment: Test H: wheat glum blotch, preventive spray on wheat seedlings
Protocol: (the causal agent of wheat glum blotch) and incubated in a saturated atmosphere at 20° C. for 48 h, and then moved to a growth chamber at 22° C. for 5 days, after which disease ratings were made.

Pythium aphanidermatum = experiment: Test A: bluegrass pythium blight, preventive spray on bluegrass seedlings; conditions: 200 ppm
Botrytis cinerea = experiment: Test E: tomato botrytis, preventive spray on tomato seedlings
Septoria tritici = experiment: Test J: wheat leaf blotch, preventive spray on wheat seedlings; type: in vivo
Text: A dash (-) indicates no test results.

fusarium graminearium = experiment: Test I: wheat head scab, preventive spray on wheat seedlings; conditions: 200 ppm
Protocol: (the causal agent of wheat head scab) and incubated in a saturated atmosphere at 20° C. for 72 h, and then moved to a growth chamber at 22° C. for 5 days, after which disease ratings were made.

[1] = test system: Puccinia recondita f. sp. tritici; experiment: Test K: wheat leaf rust, preventive spray on wheat seedlings
Rhizoctonia oryzae = experiment: Test G: turf brown patch, preventive spray on creeping bent grass seedlings
Protocol: (the causal agent of turf brown patch) and incubated in a saturated atmosphere at 27° C. for 24 h, and then moved to a growth chamber at 27° C. for 5 days, after which disease ratings were made.

[2] = test system: Erysiphe graminis f. sp. tritici; experiment: Test L: wheat powdery mildew, preventive spray on wheat seedlings
Phytophthora infestans = experiment: whole plant or invertebrate; type: in vivo; conditions: 200 ppm
[3] = test system: Colletotrichum orbiculare; experiment: Test B: cucumber Colletotrichum anthracnose, preventive spray on cucumber seedlings
Plasmopara viticola = experiment: Test D: grape downy mildew, spray after inoculation of grape seedlings; type: in vivo; conditions: 200 ppm
Text: Upon removal, disease ratings were made. […] A dash (-) indicates no test results.

Row | Structure (SMILES) | Test H disease control rating (Septoria nodorum; 40 ppm (*)) | Test A disease control rating (Pythium aphanidermatum) [%] | Test E disease control rating (Botrytis cinerea; 40 ppm (*)) | Test J disease control rating (Septoria tritici; 40 ppm (*)) | Test I disease control rating (fusarium graminearium) [%] | Test K disease control rating ([1]; 40 ppm (*)) | Test G disease control rating (Rhizoctonia oryzae; 40 ppm (*)) | Test L disease control rating ([2]; 40 ppm (*)) | Test F disease control rating (Phytophthora infestans) [%] | Test B disease control rating ([3]; 40 ppm (*)) | Test D disease control rating (Plasmopara viticola) [%] | Test H disease control rating (Septoria nodorum; 200 ppm) [%] | Test E disease control rating (Botrytis cinerea; 200 ppm) [%] | Test J disease control rating (Septoria tritici; 200 ppm) [%] | Test K disease control rating ([1]; 200 ppm) [%] | Test G disease control rating (Rhizoctonia oryzae; 200 ppm) [%] | Test L disease control rating ([2]; 200 ppm) [%] | Test B disease control rating ([3]; 200 ppm) [%]
1 | CCC(C)Cn1c(-c2c(F)cccc2F)c(Cl)nc(-n2ccnn2)c1=O (stereo not shown) [compound 60] | 0* % | 0 | 95* % | 40* % | 0 | 68* % | 0* % | 0* % | 0 | 0* % | 0 |  |  |  |  |  |  | 
2 | CCC(C)Cn1c(-c2c(F)cccc2F)c(Cl)nc(-n2ccnc2)c1=O (stereo not shown) [compound 61] |  | 0 |  |  | 0 |  |  |  | 0 |  | 0 | 0 | 0 | 40 | 0 | 0 | 0 | 0
3 | CCC(C)Cn1c(-c2c(F)cccc2F)c(Cl)nc(-n2nc(C)cc2C)c1=O (stereo not shown) [compound 62] |  | 0 |  |  | 0 |  |  |  | 0 |  | 0 | 0 | 31 | 15 | 83 | 0 | 0 | 0
4 | CCC(C)Cn1c(-c2c(F)cccc2F)c(Cl)nc(-n2ccc(C(F)(F)F)n2)c1=O (stereo not shown) [compound 63] |  | 0 |  |  | 0 |  |  |  | 0 |  | 0 | 0 | 0 | 90 | 89 | 72 | 0 | 0
5 | CCC(C)Cn1c(-c2c(F)cccc2F)c(Cl)nc(-n2nc(C)cc2C(F)(F)F)c1=O (stereo not shown) [compound 64] |  | 0 |  |  | 0 |  |  |  | 0 |  | 16 | 0 | 54 | 71 | 97 | 24 | 0 | 0
6 | CCC(C)Cn1c(-c2c(F)cccc2F)c(Cl)nc(-n2ccc(Br)n2)c1=O (stereo not shown) [compound 65] |  | 0 |  |  | 0 |  |  |  | 0 |  | 0 | 0 | 99 | 100 | 98 | 83 | 0 | 33
7 | CC(C)Cn1c(-c2c(F)cccc2F)c(Cl)nc(NN=C2CCCC2)c1=O [compound 73] |  | 0 |  |  | 0 |  |  |  | 0 |  | 0 | 0 | 97 | 59 | 80 | 0 | 0 | 0
8 | Cc1ccc(-c2c(Cl)nc(-n3cncn3)c(=O)n2CC(C)C)c(C)c1 [compound 79] |  | 0 |  |  | 0 |  |  |  | 0 |  | 0 | 100 | 100 | 100 | 97 | 46 | 92 | 83
9 | CC(C)Cn1c(-c2cc(Br)c3c(c2)OCO3)c(Cl)nc(-n2cccn2)c1=O [compound 89] |  | 0 |  |  | 0 |  |  |  | 0 |  | 0 | 0 | 0 | 0 | 0 | 0 | 0 | 0
10 | CC(C)Cn1c(-c2c(F)cccc2F)c(Cl)nc(-c2cnn(C)c2)c1=O [compound 100] |  | 0 |  |  | 0 |  |  |  | 0 |  | 0 | 0 | 0 | 3 | 26 | 0 | 13 | 0
11 | CC(C)Cn1c(-c2c(F)cccc2F)c(Cl)nc(-c2nccn2C)c1=O [compound 102] |  | 0 |  |  | 0 |  |  |  | 0 |  | 0 | 0 | 0 | 0 | 0 | 0 | 0 | 0
12 | CC(C)Cn1c(-c2c(F)cccc2F)c(Cl)nc(-c2ccnn2C)c1=O [compound 103] |  | 0 |  |  | 0 |  |  |  | 0 |  | 0 | 0 | 0 | 3 | 0 | 0 | 0 | 0
13 | O=c1c(-n2cncn2)nc(Cl)c(-c2c(F)cccc2F)n1Cc1ccccc1 [compound 105] |  | 0 |  |  | 0 |  |  |  | 0 |  | 0 | 64 | 100 | 98 | 100 | 24 | 0 | 0
14 | N#Cc1nc(Cl)c(-c2c(F)cccc2F)n(Cc2ccccc2)c1=O [compound 106] |  | 0 |  |  | 0 |  |  |  | 0 |  | 0 | 0 | 0 | 12 | 91 | 0 | 94 | 0
